Converted amounts (≈) assume the structure as drawn.
Assays:
[1] = tested on: B. burgdorferi N40; test: C3H mice infected with Borrelia burgdorferi, cell counts in skin tissue; format: in vivo; details: for # of B. burgdorferi cells in 100 mg skin tissue: 5 days of dosing
Method: C3H mice (Charles River Laboratories) are used in classical Lyme disease infection model. Mice were rested for more than 1 day after delivery before infected with 10^5 B. burgdorferi N40 cells by subcutaneous injection. Infection was established for 3 weeks. 100 μl of saline, ceftriaxone or hygromycin A was administered by IP injection. Compounds of the invention can also be tested for efficacy as described herein.
Ceftriaxone (USP grade) was purchased from Sigma-Aldrich. Saline was purchased from Baxter Healthcare. Ceftriaxone powder was dissolved into saline to 31.2 mg/ml solution. Hygromycin A stock solution at 200 mg/ml was diluted into saline to make 50 mg/ml (250 mg/kg), 15 mg/ml (75 mg/kg), 14 mg/ml (70 mg/kg), 10 mg/ml (50 mg/kg) and 5 mg/ml (25 mg/kg) solutions.
In the B. burgdorferi mice infection model, skin is the tissue with highest bacterial burden. After sacrificing mice 2 days after 5 days of dosing, we took 100 mg skin tissue from mouse ear, homogenized the tissue and plated on BSK-II semi-agar plates for cell number counts. No colony appearing on the plates is considered as clearance of the infection.

[2] = tested on: E. coli; test: microbroth dilution MIC; format: cell-based; details: Escherichia coli
Source text: (§1) AH MIC testing of bacteria followed the Clinical and Laboratory Standards Institute (CLSI) guidelines for antimicrobial testing of aerobic, bacteria (Methods for Dilution Antimicrobial Susceptibility Tests for Bacteria that Grow Aerobically; Approved Standard—Tenth Edition, M07-A10; Performance Standards for Antimicrobial Susceptibility Testing; Twenty-fifth Informational Supplement, M100-S25), and guidelines for antimicrobial testing of anaerobic bacteria (Methods for Antimicrobial Susceptibility Testing of Anaerobic Bacteria, 8th Edition. M11-A8). Compounds of the invention can also be tested for activity as described herein.
(§2) Briefly, the microbroth dilution MIC method was used to quantitatively measure the in vitro antibacterial activity of hygromycin A against the given bacterial isolates shown in the table below. S. aureus, E. coli and P. aeruginosa were grown in cation-adjusted Mueller-Hinton broth, anaerobes were grown in Schaedler Anaerobe Media, Borrelia species were grown in BSK-II medium. Bacteria from liquid cultures were diluted into the assay plate to achieve 5×10^5 CFU/mL. Assays plates were prepared by 2-fold dilution of compound across the plate and included a positive growth control. […] Borrelia species were incubated in a microaerophilic chamber at 34° C. for 5-7 days and scored visually for medium color change from pink to yellow of the phenol red present in the medium. The lowest concentration of antibiotics that pre vented color change was interpreted, as the MIC.

[3] = tested on: Borrelia turcica; test: microbroth dilution MIC; format: cell-based
Source text: as §1, §2

[4] = tested on: Borrelia garinii; test: microbroth dilution MIC; format: cell-based; details: Borreliella garinii
Source text: as §1, §2

[5] = tested on: Borrelia afzelii; test: microbroth dilution MIC; format: cell-based; details: Borreliella afzelii
Source text: as §1, §2

[6] = tested on: Borrelia bavariensis; test: microbroth dilution MIC; format: cell-based; details: Borreliella bavariensis
Source text: as §1, §2

[7] = tested on: Enterococcus faecalis; test: microbroth dilution MIC; format: cell-based
Source text: as §1, §2

[8] = tested on: Lactobacillus reuteri; test: microbroth dilution MIC; format: cell-based; details: Limosilactobacillus reuteri
Source text: as §1, §2

[9] = tested on: Borrelia burgdorferi; test: microbroth dilution MIC; format: cell-based; details: Borreliella burgdorferi
Source text: as §1, §2

[10] = tested on: Bacteroides fragilis; test: microbroth dilution MIC; format: cell-based
Source text: as §1, §2

[11] = tested on: P. aeruginosa; test: microbroth dilution MIC; format: cell-based; details: Pseudomonas aeruginosa
Source text: as §1, §2

[12] = tested on: Bifidobacterium longum; test: microbroth dilution MIC; format: cell-based
Source text: as §1, §2

[13] = tested on: S. aureus; test: microbroth dilution MIC; format: cell-based; details: Staphylococcus aureus
Source text: as §1, §2

SMILES: CC(=O)[C@H]1O[C@@H](Oc2ccc(/C=C(\C)C(=O)N[C@@H]3[C@H](O)[C@@H](O)[C@H]4OCO[C@H]4[C@@H]3O)cc2O)[C@@H](O)[C@@H]1O [Hygromycin A]
- # of B. burgdorferi cells in 100 mg skin tissue ([1]; 25 mg/kg Oral gavage): <1
- # of B. burgdorferi cells in 100 mg skin tissue ([1]; 50 mg/kg Oral gavage): <1
- # of B. burgdorferi cells in 100 mg skin tissue ([1]; 70 mg/kg Oral gavage): <1
- # of B. burgdorferi cells in 100 mg skin tissue ([1]; 75 mg/kg IP injection): <1
- # of B. burgdorferi cells in 100 mg skin tissue ([1]; 250 mg/kg Oral gavage): <1
- clearance of the Borrelia burgdorferi infection ([1]; 5 days of treatment, both IP injection and oral gavage): cleared the Borrelia burgdorferi infection
- MIC [2]: 1000 µg/mL (≈ 1960 µM)
- MIC [3]: 0.25 µg/mL (≈ 0.489 µM)
- MIC [4]: 0.25 µg/mL (≈ 0.489 µM)
- MIC [5]: 0.25 µg/mL (≈ 0.489 µM)
- MIC [6]: 0.25 µg/mL (≈ 0.489 µM)
- MIC [7]: 128 µg/mL (≈ 250 µM)
- MIC [8]: 32 µg/mL (≈ 62.6 µM)
- MIC [9]: 0.12 µg/mL (≈ 0.235 µM)
- MIC [10]: 128 µg/mL (≈ 250 µM)
- MIC [11]: > 1000 µg/mL
- MIC [12]: 8 µg/mL (≈ 15.6 µM)
- MIC [13]: 32 µg/mL (≈ 62.6 µM)
